Test results from PMC7435722, “Apoferritin and Apoferritin-Capped Metal Nanoparticles Inhibit Arginine Kinase of Trypanosoma brucei” (Molecules, 2020).
Like-named read-outs stand apart in the source and are kept apart here.

Tested on: T1, arginine kinase of T. brucei (recombinant form)
T1 construct: gene AK1; recombinant, obtained from Rhodes University laboratory
Assay: phosphate release, molybdate colorimetric […] nm, nonlinear Michaelis-Menten fit
Type: biochemical, Trypanosoma brucei
Conditions: no inhibitor, Mg sulfate, 100 mM Tris-HCl pH 8.6, 30 °C

Nc1ncnc2c1ncn2[C@@H]1O[C@H](COP(=O)(O)OP(=O)(O)OP(=O)(O)O)[C@@H](O)[C@H]1O [ATP]
Km (2 mM L-arginine fixed, ATP 0.1-0.5 mM, read-out: Km (ATP)): 5 µM

N=C(N)NCCC[C@H](N)C(=O)O [L-arginine]
Km (0.5 mM ATP fixed, L-arginine 0.5-2.5 mM, read-out: Km (L-arginine)): 21 ± 10 µM
